Laboratory results: paper PMC5218480 (PLoS ONE, 2017)

Tested on: MV-4-11 cells
Test: Gene expression microarray analysis (Affymetrix PrimeView) and GSEA
Format: cell-based, human
Parameters: RFU PODN (11730768_x_at) / Fold change /veh PODN (11730768_x_at) / RFU LINC00158 (11744669_a_at) / Fold change /veh LINC00158 (11744669_a_at) / RFU DUSP10 (11751237_a_at) / Fold change /veh DUSP10 (11751237_a_at) / RFU ID3 (11757404_x_at) / Fold change /veh ID3 (11757404_x_at) / RFU PLEKHG5 (11737974_s_at) / Fold change /veh PLEKHG5 (11737974_s_at) / RFU LRRC4B (11730491_at) / Fold change /veh LRRC4B (11730491_at) / RFU GIMAP4 (11747438_a_at) / Fold change /veh GIMAP4 (11747438_a_at) / RFU KRT8 (11758183_x_at) / Fold change /veh KRT8 (11758183_x_at) / RFU CNN1 (11734310_a_at) / Fold change /veh CNN1 (11734310_a_at) / RFU VPS37D (11726825_at) / Fold change /veh VPS37D (11726825_at) / RFU C10orf10 (11716522_x_at) / Fold change /veh C10orf10 (11716522_x_at) / RFU KIR2DL2 /// KIR2DL4 /// KIR2DL5A /// KIR2DL5B /// KIR2DS1 /// KIR2DS2 /// KIR2DS3 /// KIR2DS4 /// KIR3DL3 /// KIR3DL3 /// KIR3DS1 (11738374_at) / Fold change /veh KIR2DL2 /// KIR2DL4 /// KIR2DL5A /// KIR2DL5B /// KIR2DS1 /// KIR2DS2 /// KIR2DS3 /// KIR2DS4 /// KIR3DL3 /// KIR3DL3 /// KIR3DS1 (11738374_at) / RFU C1QL1 (11718748_at) / Fold change /veh C1QL1 (11718748_at) / RFU TMPRSS4 (11747572_a_at) / Fold change /veh TMPRSS4 (11747572_a_at) / RFU HAMP (11756126_x_at) / Fold change /veh HAMP (11756126_x_at) / RFU RNFT2 (11725882_a_at) / Fold change /veh RNFT2 (11725882_a_at) / RFU NR4A2 (11747474_a_at) / Fold change /veh NR4A2 (11747474_a_at) / RFU ABCC12 (11746883_a_at) / Fold change /veh ABCC12 (11746883_a_at) / RFU TMEM136 (11760407_x_at) / Fold change /veh TMEM136 (11760407_x_at) / RFU CLDN22 /// WWC2 (11732394_at) / Fold change /veh CLDN22 /// WWC2 (11732394_at) / RFU HLA-DPB1 (11760878_x_at) / Fold change /veh HLA-DPB1 (11760878_x_at) / RFU SPINT1 (11716480_a_at) / Fold change /veh SPINT1 (11716480_a_at) / RFU GAP43 (11754022_s_at) / Fold change /veh GAP43 (11754022_s_at) / RFU A4GNT (11735810_at) / Fold change /veh A4GNT (11735810_at) / RFU PRB3 (11715151_x_at) / Fold change /veh PRB3 (11715151_x_at) / RFU TUBB4B (11761932_at) / Fold change /veh TUBB4B (11761932_at) / RFU CAPN14 (11732068_a_at) / Fold change /veh CAPN14 (11732068_a_at) / RFU TMCC2 (11721928_a_at) / Fold change /veh TMCC2 (11721928_a_at) / RFU IRGQ (11745062_a_at) / Fold change /veh IRGQ (11745062_a_at) / RFU FAM174B (11720279_a_at) / Fold change /veh FAM174B (11720279_a_at) / RFU TMPRSS4 (11748680_a_at) / Fold change /veh TMPRSS4 (11748680_a_at) / RFU FAM212B (11763350_a_at) / Fold change /veh FAM212B (11763350_a_at) / RFU PLEKHG5 (11743358_a_at) / Fold change /veh PLEKHG5 (11743358_a_at) / RFU ZSCAN30 (11745921_a_at) / Fold change /veh ZSCAN30 (11745921_a_at) / RFU CMKLR1 (11741424_a_at) / Fold change /veh CMKLR1 (11741424_a_at) / RFU LOC101060620 /// MAPK8IP1 (11723275_at) / Fold change /veh LOC101060620 /// MAPK8IP1 (11723275_at) / RFU SPTSSB (11747773_x_at) / Fold change /veh SPTSSB (11747773_x_at) / RFU PRSS12 (11739890_at) / Fold change /veh PRSS12 (11739890_at) / RFU BIN1 (11741810_x_at) / Fold change /veh BIN1 (11741810_x_at) / RFU WNT11 (11732464_a_at) / Fold change /veh WNT11 (11732464_a_at) / RFU C10orf10 (11716521_a_at) / Fold change /veh C10orf10 (11716521_a_at) / RFU C5orf56 (11738089_at) / Fold change /veh C5orf56 (11738089_at) / RFU CYB561 (11721691_x_at) / Fold change /veh CYB561 (11721691_x_at) / RFU ANKRD19P (11752326_a_at) / Fold change /veh ANKRD19P (11752326_a_at) / RFU OR2T12 /// OR2T33 /// OR2T8 (11738714_s_at) / Fold change /veh OR2T12 /// OR2T33 /// OR2T8 (11738714_s_at) / RFU VCAN (11748164_a_at) / Fold change /veh VCAN (11748164_a_at) / RFU JSRP1 (11732532_at) / Fold change /veh JSRP1 (11732532_at) / RFU KRTAP10-11 (11738290_x_at) / Fold change /veh KRTAP10-11 (11738290_x_at) / RFU MYO3A (11730013_a_at) / Fold change /veh MYO3A (11730013_a_at) / RFU EBF3 (11725865_a_at) / Fold change /veh EBF3 (11725865_a_at) / RFU CAMK2N1 (11719241_x_at) / Fold change /veh CAMK2N1 (11719241_x_at) / RFU C5orf56 (11738088_a_at) / Fold change /veh C5orf56 (11738088_a_at) / RFU OLFML3 (11715873_a_at) / Fold change /veh OLFML3 (11715873_a_at) / RFU LOC100653217 /// NTM (11731650_a_at) / Fold change /veh LOC100653217 /// NTM (11731650_a_at) / RFU MAPK11 (11762145_a_at) / Fold change /veh MAPK11 (11762145_a_at) / RFU FIZ1 (11724087_x_at) / Fold change /veh FIZ1 (11724087_x_at) / RFU OASL (11726364_x_at) / Fold change /veh OASL (11726364_x_at) / RFU SOX15 (11748057_x_at) / Fold change /veh SOX15 (11748057_x_at) / RFU CD79A (11719716_a_at) / Fold change /veh CD79A (11719716_a_at) / RFU HIST1H1D (11736915_at) / Fold change /veh HIST1H1D (11736915_at) / RFU CASKIN2 (11723855_a_at) / Fold change /veh CASKIN2 (11723855_a_at) / RFU LOC730098 (11760151_x_at) / Fold change /veh LOC730098 (11760151_x_at) / RFU OR4N2 (11742367_at) / Fold change /veh OR4N2 (11742367_at) / RFU PRRT2 (11749266_a_at) / Fold change /veh PRRT2 (11749266_a_at) / RFU SNX32 (11753110_a_at) / Fold change /veh SNX32 (11753110_a_at) / RFU CDHR5 (11726645_a_at) / Fold change /veh CDHR5 (11726645_a_at) / RFU RCAN1 (11760418_a_at) / Fold change /veh RCAN1 (11760418_a_at) / RFU FAM167A (11723789_a_at) / Fold change /veh FAM167A (11723789_a_at) / RFU FAM26E (11764081_at) / Fold change /veh FAM26E (11764081_at) / RFU ISYNA1 (11749810_s_at) / Fold change /veh ISYNA1 (11749810_s_at) / RFU ACY1 (11761880_at) / Fold change /veh ACY1 (11761880_at) / RFU 11764098_at / Fold change /veh 11764098_at / RFU SAMD14 (11745864_x_at) / Fold change /veh SAMD14 (11745864_x_at) / RFU NPB (11741838_a_at) / Fold change /veh NPB (11741838_a_at) / RFU TMPRSS6 (11731388_a_at) / Fold change /veh TMPRSS6 (11731388_a_at) / RFU KRTAP10-2 (11738614_at) / Fold change /veh KRTAP10-2 (11738614_at) / RFU ARHGAP8 /// PRR5-ARHGAP8 (11727945_x_at) / Fold change /veh ARHGAP8 /// PRR5-ARHGAP8 (11727945_x_at) / RFU KRTAP5-7 /// NADSYN1 (11734609_at) / Fold change /veh KRTAP5-7 /// NADSYN1 (11734609_at) / RFU RASL12 (11751679_a_at) / Fold change /veh RASL12 (11751679_a_at) / RFU CDKN2B (11736163_a_at) / Fold change /veh CDKN2B (11736163_a_at) / RFU PRF1 (11729649_at) / Fold change /veh PRF1 (11729649_at) / RFU, ZNF638 /// ZNF638-IT1 / Fold change vs veh, ZNF638 /// ZNF638-IT1 / RFU, PANK3 / Fold change vs veh, PANK3 / RFU, SH3YL1 / Fold change vs veh, SH3YL1 / RFU, ZEB2 / Fold change vs veh, ZEB2 / RFU, NRIP1 / Fold change vs veh, NRIP1 / RFU, PTTG1IP / Fold change vs veh, PTTG1IP / RFU, CAPN2 / Fold change vs veh, CAPN2 / RFU, MED14 / Fold change vs veh, MED14 / RFU, SNORA58 / Fold change vs veh, SNORA58 / RFU, C1orf63 / Fold change vs veh, C1orf63 / RFU, LRRFIP1 / Fold change vs veh, LRRFIP1 / RFU, NDUFAF7 / Fold change vs veh, NDUFAF7 / RFU, SLC12A2 / Fold change vs veh, SLC12A2 / RFU, IBTK / Fold change vs veh, IBTK / RFU, ESF1 / Fold change vs veh, ESF1 / Fold change vs veh, TMEM50B / RFU, TAOK1 / Fold change vs veh, TAOK1 / RFU, ACBD3 / Fold change vs veh, ACBD3 / RFU, TMA16 / Fold change vs veh, TMA16 / RFU, RWDD3 / Fold change vs veh, RWDD3 / RFU, BCAT1 / Fold change vs veh, BCAT1 / RFU, EDEM3 / Fold change vs veh, EDEM3 / RFU, TMEM33 / Fold change vs veh, TMEM33 / RFU, WDR75 / Fold change vs veh, WDR75 / RFU, AHCTF1 / Fold change vs veh, AHCTF1 / RFU, TFRC / Fold change vs veh, TFRC / RFU, ZDHHC17 / Fold change vs veh, ZDHHC17 / RFU, NOM1 / Fold change vs veh, NOM1 / RFU, ARL8B / Fold change vs veh, ARL8B / RFU, ZBTB11 / Fold change vs veh, ZBTB11 / RFU, TAMM41 / Fold change vs veh, TAMM41 / RFU, KIAA1704 /// LOC100996395 / Fold change vs veh, KIAA1704 /// LOC100996395 / RFU, ING1 / Fold change vs veh, ING1 / RFU, TRMT61B / Fold change vs veh, TRMT61B / RFU, FUBP3 / Fold change vs veh, FUBP3 / RFU, TP53 / Fold change vs veh, TP53 / RFU, TNKS2 / Fold change vs veh, TNKS2 / RFU, ZFP14 / Fold change vs veh, ZFP14 / RFU, ACTR2 / Fold change vs veh, ACTR2 / RFU, PPP3R1 / Fold change vs veh, PPP3R1 / RFU, PIK3R1 / Fold change vs veh, PIK3R1 / RFU, HNRNPA1 / Fold change vs veh, HNRNPA1 / RFU, RNF170 / Fold change vs veh, RNF170 / RFU, ZNF28 / Fold change vs veh, ZNF28 / RFU, RNGTT / Fold change vs veh, RNGTT / RFU, OGT / Fold change vs veh, OGT / RFU, BRD1 / Fold change vs veh, BRD1 / RFU, MARS / Fold change vs veh, MARS / RFU, ZNF655 / Fold change vs veh, ZNF655 / RFU, FAHD1 / Fold change vs veh, FAHD1 / RFU, BDP1 / Fold change vs veh, BDP1 / RFU, LRRCC1 / Fold change vs veh, LRRCC1 / RFU, ARID1A / Fold change vs veh, ARID1A / RFU, ZNF146 / Fold change vs veh, ZNF146 / RFU, ZNF330 / Fold change vs veh, ZNF330 / RFU, GPN3 / Fold change vs veh, GPN3 / RFU, C9orf123 / Fold change vs veh, C9orf123 / RFU, N4BP2L2 / Fold change vs veh, N4BP2L2 / RFU, ARFIP1 / Fold change vs veh, ARFIP1 / RFU, FAM179B / Fold change vs veh, FAM179B / RFU, BCL10 / Fold change vs veh, BCL10 / RFU, UHRF1BP1L / Fold change vs veh, UHRF1BP1L / RFU, BET1 / Fold change vs veh, BET1 / RFU, CNOT2 / Fold change vs veh, CNOT2 / RFU, ZNF268 / Fold change vs veh, ZNF268 / Fold change vs veh, ZNF507 / RFU, DGCR2 / Fold change vs veh, DGCR2 / RFU, WDSUB1 / Fold change vs veh, WDSUB1 / Fold change vs veh, HSP90B1 /// MIR3652 / RFU, ADSS / Fold change vs veh, ADSS / RFU, GK / Fold change vs veh, GK / RFU, ZNF148 / Fold change vs veh, ZNF148 / RFU, TAF9 / Fold change vs veh, TAF9 / RFU, SLC1A5 / Fold change vs veh, SLC1A5 / RFU, SLMO2 / Fold change vs veh, SLMO2 / RFU, ABCC4 / Fold change vs veh, ABCC4 / RFU, LOC101060439 /// RAP1B / Fold change vs veh, LOC101060439 /// RAP1B / RFU, RFX7 / Fold change vs veh, RFX7 / RFU, GTPBP10 / Fold change vs veh, GTPBP10 / RFU, CNEP1R1 / Fold change vs veh, CNEP1R1 / RFU, BIVM-ERCC5 /// ERCC5 / Fold change vs veh, BIVM-ERCC5 /// ERCC5 / RFU, ILF3 / Fold change vs veh, ILF3 / RFU 11762660_at / Fold change /veh 11762660_at / RFU VCAN (11757783_s_at) / Fold change /veh VCAN (11757783_s_at) / RFU DDX43 (11728927_at) / Fold change /veh DDX43 (11728927_at) / RFU KRT8 (11758188_x_at) / Fold change /veh KRT8 (11758188_x_at) / RFU NKD1 (11759106_at) / Fold change /veh NKD1 (11759106_at) / RFU SRD5A1 (11742802_a_at) / Fold change /veh SRD5A1 (11742802_a_at) / RFU TPSAB1 /// TPSB2 (11721975_s_at) / Fold change /veh TPSAB1 /// TPSB2 (11721975_s_at) / RFU GSTM3 (11746129_a_at) / Fold change /veh GSTM3 (11746129_a_at) / RFU IL23R (11737362_x_at) / Fold change /veh IL23R (11737362_x_at) / RFU TMEM51 (11727254_a_at) / Fold change /veh TMEM51 (11727254_a_at) / RFU PIWIL2 (11732686_x_at) / Fold change /veh PIWIL2 (11732686_x_at) / RFU ORM1 (11744905_x_at) / Fold change /veh ORM1 (11744905_x_at) / RFU CCDC152 (11743942_at) / Fold change /veh CCDC152 (11743942_at) / RFU ECM1 (11717891_a_at) / Fold change /veh ECM1 (11717891_a_at) / RFU IL23R (11748794_a_at) / Fold change /veh IL23R (11748794_a_at) / RFU TNFAIP8L3 (11732012_x_at) / Fold change /veh TNFAIP8L3 (11732012_x_at) / RFU MBOAT4 (11741988_at) / Fold change /veh MBOAT4 (11741988_at) / RFU 11764193_at / Fold change /veh 11764193_at / RFU TMEM53 (11763286_at) / Fold change /veh TMEM53 (11763286_at) / RFU MAGEB2 (11727129_at) / Fold change /veh MAGEB2 (11727129_at) / RFU TMEM200A (11744735_a_at) / Fold change /veh TMEM200A (11744735_a_at) / RFU CCDC152 (11751479_a_at) / Fold change /veh CCDC152 (11751479_a_at) / RFU FAM211A (11726209_a_at) / Fold change /veh FAM211A (11726209_a_at) / RFU RGS16 (11746705_a_at) / Fold change /veh RGS16 (11746705_a_at) / RFU VCAN (11755009_s_at) / Fold change /veh VCAN (11755009_s_at) / RFU RHOB (11743442_s_at) / Fold change /veh RHOB (11743442_s_at) / RFU RGS16 (11720943_a_at) / Fold change /veh RGS16 (11720943_a_at) / RFU RGS16 (11720944_at) / Fold change /veh RGS16 (11720944_at) / RFU, VPS4B / Fold change vs veh, VPS4B / RFU, CREB1 / Fold change vs veh, CREB1 / RFU, DNAJC13 / Fold change vs veh, DNAJC13 / RFU, GNAQ / Fold change vs veh, GNAQ / RFU, CDK5R1 / Fold change vs veh, CDK5R1 / RFU, ZRANB3 / Fold change vs veh, ZRANB3 / RFU, CUL4A / Fold change vs veh, CUL4A / RFU, CCNY / Fold change vs veh, CCNY / RFU, UFL1 / Fold change vs veh, UFL1 / RFU, COG3 / Fold change vs veh, COG3 / RFU, DIAPH2 / Fold change vs veh, DIAPH2 / RFU, SKA2 / Fold change vs veh, SKA2 / RFU, AFF3 / Fold change vs veh, AFF3 / RFU, LMF1 / Fold change vs veh, LMF1 / RFU, IPO11 / Fold change vs veh, IPO11 / RFU, DFFB / Fold change vs veh, DFFB / RFU, FOXP1 / Fold change vs veh, FOXP1 / RFU, CARD8 / Fold change vs veh, CARD8 / RFU, STRN3 / Fold change vs veh, STRN3 / RFU, ADK / Fold change vs veh, ADK / RFU, RASSF2 / Fold change vs veh, RASSF2 / RFU, WIPF1 / Fold change vs veh, WIPF1 / RFU, LARP1B / Fold change vs veh, LARP1B / RFU, RASA1 / Fold change vs veh, RASA1 / RFU, RB1 / Fold change vs veh, RB1 / RFU, PPFIA1 / Fold change vs veh, PPFIA1 / RFU, MAT2A / Fold change vs veh, MAT2A / RFU, CCT5 / Fold change vs veh, CCT5 / RFU, WDR92 / Fold change vs veh, WDR92 / RFU, CUX1 / Fold change vs veh, CUX1 / RFU, TTC7A / Fold change vs veh, TTC7A / RFU, TMEM135 / Fold change vs veh, TMEM135 / RFU, DEPTOR / Fold change vs veh, DEPTOR / RFU, CPM / Fold change vs veh, CPM / RFU, DNAJB6 / Fold change vs veh, DNAJB6 / RFU, CACNA2D3 / Fold change vs veh, CACNA2D3 / RFU, DTX4 / Fold change vs veh, DTX4 / RFU, TFCP2 / Fold change vs veh, TFCP2 / RFU, GMCL1 /// GMCL1P1 / Fold change vs veh, GMCL1 /// GMCL1P1 / RFU, AEBP2 / Fold change vs veh, AEBP2 / RFU, SNHG1 /// SNORD22 /// SNORD25 /// SNORD26 /// SNORD27 /// SNORD28 /// SNORD29 /// SNORD31 / Fold change vs veh, SNHG1 /// SNORD22 /// SNORD25 /// SNORD26 /// SNORD27 /// SNORD28 /// SNORD29 /// SNORD31 / Fold change (Aza/veh), C12orf56 (ProbeSet 11735607_a_at) / Fold change (ACY-1035/veh), C12orf56 (ProbeSet 11735607_a_at) / Fold change (Aza/veh), FGFR1OP (ProbeSet 11751329_s_at) / Fold change (ACY-1035/veh), FGFR1OP (ProbeSet 11751329_s_at) / Fold change (Aza/veh), VPS36 (ProbeSet 11739960_a_at) / Fold change (ACY-1035/veh), VPS36 (ProbeSet 11739960_a_at) / RFU SYPL1 (11715823_x_at) / Fold change /veh SYPL1 (11715823_x_at) / RFU IGFBP7 (11715501_s_at) / Fold change /veh IGFBP7 (11715501_s_at) / RFU REEP3 (11722064_at) / Fold change /veh REEP3 (11722064_at) / RFU IGLL1 (11728026_x_at) / Fold change /veh IGLL1 (11728026_x_at): dose or concentration left out as unconfirmed
Details: ProbeSet 11722022_s_at; LIST D

Question: For `Nc1ccc(-c2cccs2)cc1NC(=O)c1ccc2c(c1)cc(C1CC1)n2CCN1CCOCC1` [ACY-1035], which “Fold change vs veh, CDK5R1” value is on record?
Answer: Its value is 0.91.
